# System: A549 human non-small cell lung carcinoma cells
# Assay: Paclitaxel combination on A549 cells
# Format: cell-based
# Settings: stated after the paclitaxel combination results on A549 and PC-3 cells
smiles,measurement,value
"CN(C)CC[C@@H](CSc1ccccc1)Nc1ccc(S(=O)(=O)NC(=O)c2ccc(N3CCN(Cc4ccccc4-c4ccc(Cl)cc4)CC3)cc2)cc1[N+](=O)[O-] [enantiomer of EXAMPLE 2, N-(4-(4-((4′-chloro(1,1′-biphenyl)-2-yl)methyl)piperazin-1-yl)benzoyl)-4-(((1S)-3-(dimethylamino)-1-((phenylsulfanyl)methyl)propyl)amino)-3-nitrobenzenesulfonamide]",efficacy relative to EXAMPLE 2,less efficacious
